Data published in patent US20250057910A1, “Application of Polypeptide in Preparation of Product for Preventing or Treating Skin Injury Diseases” (Sichuan Gooddoctor Panxi Pharmaceutical Co., Ltd., priority 2021, published 2025).
Ends that are not written are not given here.

What was measured:
[1] = test system: HaCaT cells (human immortalized keratinocytes); test: Proliferation of HaCaT cells (CCK8); assay type: cell-based; settings: 72 h, 1640 medium with 1% serum, FIG. 1
Method: Experimental method: Human immortalized keratinocytes (HaCAT cells) were adjusted to a concentration of 1.0*10^5 to 5.0*10^5/mL for passaging, and cultured at 37° C. and 5% CO2 for 24-36 hours for the biological activity detection. The cells were digested with 0.25% pancreatin for 5 min, a 1640 whole blood medium with more than 1 times the volume of pancreatin was added to stop digestion, a cell suspension was collected and centrifuged at 1000 RPM for 3 min, the supernatant was discarded, 2 mL of 1640 whole blood medium was added to resuspend the cells, 20 uL cell suspension was taken, stained with AOPI, and then the concentration of cells in the suspension was detected with a cell counter, the cell suspension was formulated with 1640 medium with 10% serum to a concentration of 5*10^4/mL and seeded into 96-well cell culture plates with 100 μL per well, i.e. 5000 cells/well, and cultured overnight at 37° C. and 5% CO2.
After 24 hours, the original culture medium was discarded and 100 μL of each of different concentrations of polypeptide solutions formulated with 1640 culture medium with 1% serum was added. […] The mixtures were cultured at 37° C. and 5% CO2 for 72 h, and the proliferation of the HaCaT cell line was detected by the CCK8 kit.

[2] = test system: HMEC-1 cells (human microvascular endothelial cells); test: Proliferation of HMEC-1 cells (CCK-8); assay type: cell-based; settings: 48 hours, 0% serum medium, FIG. 2
Method: Experimental method: Human microvascular endothelial cells (HMEC-1 cells) were cultured in 10% serum medium at 37° C. and 5% CO2, the culture fluid was changed every 1-2 days, and the cell concentration was controlled to be 4*10^6 cells/mL for passaging. The cells were collected and prepared into a concentration of 4*10^4 cells/mL with a serum-free medium, seeded into a 96-well cell culture plate with 100 uL per well, i.e., 4000 cells/well, and cultured at 37° C. and 5% CO2 to be adherent.
(§1) The polypeptide was dissolved in PBS solution and prepared into a stock solution with a concentration of 1 mg/mL. The polypeptide stock solution was prepared with 0% serum medium to test concentrations as the experimental groups; in the same manner, recombinant human vascular endothelial growth factor VEGF (100 ng/mL) was prepared and added as positive control; and for the blank control group, the same volume of 0% serum medium without drugs was added. For all the groups, 5 duplicate wells were incubated at 37° C. and 5% CO2 for 48 hours. The CCK-8 was used to detect cell proliferation: serum-free medium containing 10% CCK-8 was added to each well, and absorbances were measured at 450 nm by microplate reader after incubation in an incubator for 2 hours.

[3] = test system: RSC96 cells (Rat Schwann cells); test: Proliferation of RSC96 cells (CCK-8); assay type: cell-based; settings: 48 hours, 0% serum medium, FIG. 4
Method: Experimental method: Rat Schwann cells (RSC96 cells) were adjusted to a concentration of 1.0*10^5 to 5.0*10^5/mL for passaging, and cultured at 37° C. and 5% CO2 for 24-36 hours for the biological activity detection. The cells were digested by trypsin, collected, prepared into a concentration of 5*10^4/mL with a serum-free medium, seeded in a 96-well cell culture plate with 100 μL per well, i.e., […], and cultured overnight at 37° C. and 5% CO2.
as §1, with “of 400 ug/ml.” for “of 1 mg/mL.”, “groups;” for “groups; in the same manner, recombinant human vascular endothelial growth factor VEGF (100 ng/mL) was prepared and added as positive control;”, “the” for “the blank”, “groups, 4” for “groups, 5”, “proliferation: the old medium was removed, the” for “proliferation:”

[4] = test system: SD rats; test: Healing of full-layer skin defect wound in SD rats; assay type: in vivo, rat; settings: for Wound healing rate: SD rats, topical once a day, polypeptide 50 μg/cm^2, comparative polypeptide 1 41.90 μg/cm^2, comparative polypeptide 2 52.66 μg/cm^2, Mean ± SD, n = 8
Method: Experimental animals: SD male rats, SPF grade, 6 weeks old, weighing 180-220 g, from Beijing Vital River Laboratory Animal Technology Co., Ltd., with the experimental animal quality certification number of NO.110011220109610345, and the experimental animal use license number of SCXK (Beijing) 2021-0011.
Experimental method: SD rats were randomly divided into […] based on the body weight with 8 animals in each group, namely, vehicle group, the polypeptide group (50 μg/cm^2), comparative polypeptide 1 group (41.90 μg/cm^2) and comparative polypeptide 2 group (52.66 μg/cm^2). The amino acid sequence of comparative polypeptide 1 is Glu-Pro-Val-Pro-Leu; and the amino acid sequence of comparative polypeptide 2 is Pro-Ala-Ala-Glu-Pro-Val-Pro-Leu-Val-Lys-Gln-Glu.
After each experimental rat was anesthetized by intraperitoneal injection of 2% pentobarbital sodium (0.2 mL/100 g), a 2 cm^2 full-layer skin defect wound was prepared at each of both sides of the back spine. After hemostasis of the wound, the corresponding drug was administered at the wound locally by group. Each group was administered once a day, with a dosed volume of 72 μL/wound each time, for 14 consecutive days. After the administration, the wound was covered with a sterile vaseline gauze (5 cm*5 cm), and bandaged with multi-layer sterile gauzes. After the wound surgery, the wound was photographed, and the wound area was recorded as the baseline value (the wound was recorded as Day0). During the administration period, the areas of the wounds were photographed and measured 3 times a week, and the healing was observed.

Sequence: PAAEPVPL [polypeptide]
- Proliferation-promoting effect on the HaCaT cell line [1]: significant effect of promoting proliferation
- Proliferation-promoting effect on the HMEC-1 cell line [2]: significant effect of promoting proliferation
- Proliferation-promoting effect on the RSC96 cell line [3]: significant effect of promoting proliferation
- Healing rate of full-layer skin defect wound (statement in words) ([4]; 50 μg/cm^2, days 3-10 after surgery, vs vehicle group): higher healing rate with a significant difference
- Wound healing rate ([4]; Day 0 (baseline)): 0.00 ± 0.00%
- Wound healing rate ([4]; Day 3): 29.70 ± 19.21 %
- Wound healing rate ([4]; Day 5): 52.21 ± 11.54 %
- Wound healing rate ([4]; Day 7): 74.12 ± 5.95 %
- Wound healing rate ([4]; Day 10): 94.55 ± 2.40 %
